Experimental data as given in PubChem BioAssay AID328 (DTP/NCI, 2004).
Several values for one entry are separate records, joined by “and”; a condition that tells them apart may be missing. Equal values may be shown once. Toxic doses and inconclusive results are not listed.

Test system: BDF1 mice, P388 leukemia ip, median survival T/C
Assay: NCI In Vivo Anticancer Drug Screen. Data for tumor model P388 Leukemia (intraperitoneal) in B6D2F1 (BDF1) mice
Settings: endpoint: median survival time, higher = longer survival
Summary of the method: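 In tumour-bearing mice, survival after compound treatment is set against the vehicle group and given as a quotient.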

[1] = dose: 100.0 mg/kg/injection, schedule: Q04DX003 (ip), vehicle: saline sonified
[2] = dose: 200.0 mg/kg/injection, schedule: Q04DX003 (ip), vehicle: saline sonified
[3] = dose: 400.0 mg/kg/injection, schedule: Q04DX003 (ip), vehicle: saline sonified
[4] = dose: 200.0 mg/kg/injection, schedule: Q01DX009 (ip), vehicle: saline
[5] = dose: 100.0 mg/kg/injection, schedule: Q01DX009 (ip), vehicle: saline with Tween-80
[6] = dose: 50.0 mg/kg/injection, schedule: Q01DX009 (ip), vehicle: saline
[7] = dose: 100.0 mg/kg/injection, schedule: Q04DX003 (ip), vehicle: saline
[8] = dose: 200.0 mg/kg/injection, schedule: Q04DX003 (ip), vehicle: saline
[9] = dose: 400.0 mg/kg/injection, schedule: Q04DX003 (ip), vehicle: saline
[10] = dose: 100.0 mg/kg/injection, schedule: Q01DX009 (ip), vehicle: saline
[11] = dose: 200.0 mg/kg/injection, schedule: Q01DX009 (ip), vehicle: saline with Tween-80
[12] = dose: 400.0 mg/kg/injection, schedule: Q01DX009 (ip), vehicle: saline with Tween-80
[13] = dose: 50.0 mg/kg/injection, schedule: Q04DX003 (ip), vehicle: Klucel (hydroxypropylcellulose) (HPC)
[14] = dose: 100.0 mg/kg/injection, schedule: Q04DX003 (ip), vehicle: Klucel (hydroxypropylcellulose) (HPC)
[15] = dose: 200.0 mg/kg/injection, schedule: Q04DX003 (ip), vehicle: Klucel (hydroxypropylcellulose) (HPC)
[16] = dose: 100.0 mg/kg/injection, schedule: Q01DX009 (ip), vehicle: Klucel (hydroxypropylcellulose) (HPC)
[17] = dose: 200.0 mg/kg/injection, schedule: Q01DX009 (ip), vehicle: Klucel (hydroxypropylcellulose) (HPC)

CCC12CCC(=O)NC1Cc1[nH]c3c(OC)cccc3c1C2 (configuration not stated)
T/C [1]: 100 % of control
T/C [2]: 100 % of control
T/C [3]: 109 % of control

CC(NC(=O)C(N)C(C)C)C(=O)O (configuration not stated)
T/C (dose: 50.0 mg/kg/injection, schedule: Q01DX005 (ip), vehicle: saline): 92 % of control
T/C (dose: 100.0 mg/kg/injection, schedule: Q01DX005 (ip), vehicle: saline): 97 % of control
T/C (dose: 200.0 mg/kg/injection, schedule: Q01DX005 (ip), vehicle: saline): 92 % of control

O=C(O)c1cc(O)c(Br)c(O)c1
T/C (dose: 100.0 mg/kg/injection, schedule: Q01DX001 (ip), vehicle: saline with Tween-80): 109 % of control
T/C (dose: 200.0 mg/kg/injection, schedule: Q01DX001 (ip), vehicle: saline with Tween-80): 100 % of control
T/C (dose: 400.0 mg/kg/injection, schedule: Q01DX001 (ip), vehicle: saline with Tween-80): 104 % of control

O=C(O)C(=O)O.OO.OO.OO.[Nb]
T/C [4]: 86 % of control

O=C(Cl)C1=C(c2ccccc2)C1c1ccccc1 (configuration not stated)
T/C (dose: 50.0 mg/kg/injection, schedule: Q01DX009 (ip), vehicle: saline with Tween-80): 102 % of control
T/C [5]: 101 % of control

CN(C)c1ccc(N=Cc2cc[n+](C)cc2)cc1
T/C (dose: 12.5 mg/kg/injection, schedule: Q01DX009 (ip), vehicle: saline): 104 % of control
T/C (dose: 16.5 mg/kg/injection, schedule: Q01DX009 (ip), vehicle: saline): 116 % of control and 122 % of control
T/C (dose: 25.0 mg/kg/injection, schedule: Q01DX009 (ip), vehicle: saline): 101 % of control
T/C (dose: 37.5 mg/kg/injection, schedule: Q01DX009 (ip), vehicle: saline): 109 % of control and 118 % of control
T/C [6]: 118 % of control

O=C1C=C(SCCO)C(=O)c2ccccc21
T/C (dose: 0.37 mg/kg/injection, schedule: Q04DX003 (ip), vehicle: saline): 100 % of control
T/C (dose: 0.75 mg/kg/injection, schedule: Q04DX003 (ip), vehicle: saline): 104 % of control
T/C (dose: 1.5 mg/kg/injection, schedule: Q04DX003 (ip), vehicle: saline): 109 % of control

O=C1c2cccc(O)c2C(=O)c2c(O)cccc21
T/C [7]: 100 % of control and 109 % of control
T/C [8]: 109 % of control
T/C [9]: 95 % of control and 118 % of control

CC(O)C(F)(F)C(F)(F)C(F)(F)C(C)O (configuration not stated)
T/C [6]: 90 % of control
T/C [10]: 104 % of control
T/C [1]: 116 % of control
T/C [4]: 104 % of control
T/C [2]: 94 % of control
T/C [3]: 116 % of control

C/C=C1/CC(C)C(C)(O)C(=O)OCC2CCN3CCC(OC1=O)C23 (configuration not stated)
T/C (dose: 25.0 mg/kg/injection, schedule: Q01DX010 (ip), vehicle: saline): 111 % of control
T/C (dose: 50.0 mg/kg/injection, schedule: Q01DX010 (ip), vehicle: saline): 116 % of control
T/C (dose: 100.0 mg/kg/injection, schedule: Q01DX010 (ip), vehicle: saline): 116 % of control

CC(=O)OC1(C)CC(C)C(=O)C(C(O)CC2CC(=O)NC(=O)C2)C1 (configuration not stated)
T/C (dose: 0.25 mg/kg/injection, schedule: Q01DX010 (ip), vehicle: water): 90 % of control
T/C (dose: 2.16 mg/kg/injection, schedule: Q01DX001 (sc), vehicle: saline): 100 % of control
T/C (dose: 3.24 mg/kg/injection, schedule: Q01DX001 (ip), vehicle: saline): 110 % of control
T/C (dose: 3.6 mg/kg/injection, schedule: Q01DX001 (sc), vehicle: saline): 123 % of control
T/C (dose: 5.4 mg/kg/injection, schedule: Q01DX001 (ip), vehicle: saline): 116 % of control
T/C (dose: 5.4 mg/kg/injection, schedule: Q04DX003 (ip), vehicle: saline): 107 % of control
T/C (dose: 6.0 mg/kg/injection, schedule: Q01DX001 (sc), vehicle: saline): 118 % of control
T/C (dose: 9.0 mg/kg/injection, schedule: Q01DX001 (ip), vehicle: saline): 117 % of control
T/C (dose: 15.0 mg/kg/injection, schedule: Q01DX001 (ip), vehicle: saline): 123 % of control
T/C (dose: 778.0 micrograms/kg/injection, schedule: Q04DX003 (sc), vehicle: saline): 109 % of control
T/C (dose: 1300.0 micrograms/kg/injection, schedule: Q04DX003 (sc), vehicle: saline): 116 % of control
T/C (dose: 2160.0 micrograms/kg/injection, schedule: Q04DX003 (sc), vehicle: saline): 107 % of control
T/C (dose: 3600.0 micrograms/kg/injection, schedule: Q04DX003 (sc), vehicle: saline): 98 % of control

COC(=O)C1CN1C(c1ccccc1)(c1ccccc1)c1ccccc1 (configuration not stated)
T/C [11]: 95 % of control
T/C [12]: 87 % of control

Cc1c[n+]([O-])ccc1Br
T/C (dose: 6.25 mg/kg/injection, schedule: Q04DX003 (ip), vehicle: water): 100 % of control
T/C (dose: 12.5 mg/kg/injection, schedule: Q04DX003 (ip), vehicle: water): 100 % of control
T/C (dose: 25.0 mg/kg/injection, schedule: Q04DX003 (ip), vehicle: water): 112 % of control
T/C (dose: 50.0 mg/kg/injection, schedule: Q04DX003 (ip), vehicle: water): 99 % of control
T/C (dose: 100.0 mg/kg/injection, schedule: Q04DX003 (ip), vehicle: water): 100 % of control

Cc1ccc(C(=O)N/N=C/C(=O)O)cc1
T/C (dose: 12.5 mg/kg/injection, schedule: Q04DX003 (ip), vehicle: Klucel (hydroxypropylcellulose) (HPC)): 113 % of control
T/C (dose: 25.0 mg/kg/injection, schedule: Q04DX003 (ip), vehicle: Klucel (hydroxypropylcellulose) (HPC)): 106 % of control
T/C [13]: 116 % of control
T/C [14]: 106 % of control
T/C [15]: 122 % of control

COC(=O)C1C(O)C(C)C(O)C(C)(O)C=C(C)C2=C3C(=C(C)C(=O)c4c(O)c(c(C)c(OC(C)=O)c43)NC(=O)C(C)=C/C=C\C(C)(O)C(O)C(C)C1O)OCO2 (configuration not stated)
T/C (dose: 50.0 mg/kg/injection, schedule: Q01DX009 (ip), vehicle: Klucel (hydroxypropylcellulose) (HPC)): 119 % of control
T/C [16]: 110 % of control
T/C [17]: 116 % of control

O=C(O)CCC(=O)c1cccc2ccccc12
T/C (dose: 50.0 mg/kg/injection, schedule: Q01DX001 (ip), vehicle: other): 100 % of control
T/C [13]: 104 % of control
T/C (dose: 100.0 mg/kg/injection, schedule: Q01DX001 (ip), vehicle: other): 90 % of control
T/C [14]: 100 % of control
T/C (dose: 200.0 mg/kg/injection, schedule: Q01DX001 (ip), vehicle: other): 100 % of control
T/C [15]: 113 % of control

O=Cc1cn[nH]c1-c1ccccc1
T/C [16]: 92 % of control
T/C [14]: 87 % of control
T/C [17]: 88 % of control
T/C [15]: 87 % of control

COc1cc(OC)c(OC)cc1/C=C\c1ccnc2ccccc12
T/C (dose: 133.0 mg/kg/injection, schedule: Q01DX010 (ip), vehicle: saline): 120 % of control
T/C (dose: 200.0 mg/kg/injection, schedule: Q01DX009 (ip), vehicle: carboxymethylcellulose (CMC)): 116 % of control
T/C (dose: 200.0 mg/kg/injection, schedule: Q01DX010 (ip), vehicle: saline): 120 % of control
T/C (dose: 400.0 mg/kg/injection, schedule: Q01DX009 (ip), vehicle: carboxymethylcellulose (CMC)): 166 % of control
T/C (dose: 450.0 mg/kg/injection, schedule: Q01DX010 (ip), vehicle: saline): 120 % of control

COc1ccc(/C=C/c2ccnc3ccccc23)cc1
T/C [5]: 93 % of control
T/C [11]: 111 % of control
T/C [12]: 93 % of control

CN(CCCCN(C)CCOS(C)(=O)=O)CCOS(C)(=O)=O
T/C (dose: 0.8 mg/kg/injection, schedule: Q04DX003 (ip), vehicle: saline): 177 % of control
T/C (dose: 1.2 mg/kg/injection, schedule: Q04DX003 (ip), vehicle: saline): 172 % of control
T/C (dose: 1.8 mg/kg/injection, schedule: Q04DX003 (ip), vehicle: saline): 154 % of control

O=C(Oc1ccc([N+](=O)[O-])cc1)c1ccc(C[P+](c2ccccc2)(c2ccccc2)c2ccccc2)cc1
T/C [10]: 109 % of control
T/C [7]: 104 % of control
T/C [4]: 100 % of control
T/C [8]: 100 % of control
T/C (dose: 400.0 mg/kg/injection, schedule: Q01DX009 (ip), vehicle: saline): 100 % of control
T/C [9]: 95 % of control
